# Patent US11209437B2, “Fluorescent probe and preparation method and use thereof” (Fluorescence Diagnosis (shanghai) Biotech Company Ltd., priority 2016, dated 2021)
# Tests used:
# [1] = Viscosity responsiveness: fluorescence emission spectra of probes in glycerol and methanol; type: physicochemical; settings: for Emission wavelength: excited at maximum excitation wavelength of each probe; for Fluorescence ratio in glycerol to methanol: probe 1×10^−5 M
# Summary of the method: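 Each probe, from a 1×10^−2 M DMSO stock, was diluted to a final 1×10^−5 M in glycerol and in methanol. Fluorescence emission spectra were then recorded under identical conditions at each probe's maximum excitation wavelength.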
# [2] = Fluorescence of free probe prior to binding to a protein tag; type: physicochemical
# SNAP protein tags = biological target: T1, SNAP protein tags (Homo sapiens, UniProt P16455, A127T/A154D/C150Q/C62A/E30R/G131K/G132T/G153L/K125A/K32I/L33F/M134L/N157G/Q115S/Q116H/R128A/R135S/S151G/S152D/S159E); experiment: Fluorescence activation of probe after incubation with corresponding protein tag (SNAP); type: biochemical; settings: probe 5 μM, protein tag 10 μM, 37° C., 1 hr
# T1 sequence (P16455 1-182 E30R/K32I/L33F/C62A/Q115S/Q116H/K125A/A127T/R128A/G131K/G132T/M134L/R135S/C150Q/S151G/S152D/G153L/A154D/N157G/S159E): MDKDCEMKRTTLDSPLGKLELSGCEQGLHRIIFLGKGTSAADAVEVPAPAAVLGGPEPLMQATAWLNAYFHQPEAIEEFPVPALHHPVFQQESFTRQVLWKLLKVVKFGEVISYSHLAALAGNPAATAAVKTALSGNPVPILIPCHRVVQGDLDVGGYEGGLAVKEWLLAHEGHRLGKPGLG
# Summary of the method: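 Probe (5 μM final) mixed with CLIP or SNAP protein tag (10 μM final) and incubated 1 hr at 37° C. Fluorescence intensity change measured by fluorescence spectrophotometer, with quantum yield of tag-bound probe determined.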
SMILES,Emission wavelength [1] [nm],Fluorescence ratio in glycerol to methanol [1],Quantum yield of free probe [2],Fluorescence activation multiple (SNAP protein tags),Quantum yield of probe bound to protein tag (SNAP protein tags)
CN(CCOC(=O)NCc1ccc(COc2nc(N)nc3[nH]cnc23)cc1)c1ccc2nc(/C=C(\C#N)c3nc4ccccc4s3)oc2c1 [probe 47],627,235,<0.001,358,0.26
CN1C(=O)/C(=C\c2nc3ccc(N(C)CCOC(=O)NCc4ccc(COc5nc(N)nc6[nH]cnc56)cc4)cc3o2)N=C1c1ccccc1 [probe 50],612,358,<0.001,416,0.29
CN(CCOC(=O)NCc1ccc(COc2cc(Cl)nc(N)n2)cc1)c1ccc2nc(/C=C(\C#N)C(=O)OC(C)(C)C)sc2c1 [probe 52],625,270,<0.001,435,0.25
CN(CCOC(=O)NCc1ccc(COc2nc(N)nc3[nH]cnc23)cc1)c1ccc2nc(/C=C(\C#N)c3nc4ccccc4o3)sc2c1 [probe 54],650,391,<0.001,498,0.17
CN(CCOC(=O)NCc1ccc(COc2nc(N)nc3[nH]cnc23)cc1)c1ccc2nc(/C=C(\C#N)c3nc4ccccc4s3)sc2c1 [probe 55],651,211,<0.001,382,0.25
CN(CCOC(=O)NCc1ccc(COc2nc(N)nc3[nH]cnc23)cc1)c1ccc(C#C/C=C(\C#N)c2nc3ccccc3o2)cc1 [probe 58],590,419,<0.001,519,0.27
CN(CCOC(=O)NCc1ccc(COc2nc(N)nc3[nH]cnc23)cc1)c1cc2sc3cc(/C=C(\C#N)c4nc5ccccc5o4)sc3c2s1 [probe 61],620,817,0.0012,668,0.77
CN(CCOC(=O)NCc1ccc(COc2nc(N)nc3[nH]cnc23)cc1)c1cc2sc3cc(/C=C(\C#N)c4nc5ccccc5s4)sc3c2s1 [probe 62],640,711,<0.001,592,0.32
CN(CCOC(=O)NCc1ccc(COc2nc(N)nc3[nH]cnc23)cc1)c1ccc2c(c1)sc1cc(C=C(C#N)C#N)sc12 [probe 64],620,632,<0.001,519,0.48
CN(CCOC(=O)NCc1ccc(COc2nccc(N)n2)cc1)c1ccc2c(c1)sc1cc(/C=C(/C#N)c3nc4ccccc4o3)sc12 [probe 65],650,391,<0.001,798,0.66
CN(CCOC(=O)NCc1ccc(COc2nc(N)nc3[nH]cnc23)cc1)c1cc2cc3sc(/C=C(\C#N)C(=O)OC(C)(C)C)cc3cc2s1 [probe 70],640,131,0.0026,258,0.68
CN(CCOC(=O)NCc1ccc(COc2nc(N)nc3[nH]cnc23)cc1)c1cc2c(s1)-c1sc(C=C(C#N)C#N)cc1[Si]2(C)C [probe 73],680,325,0.0031,248,0.76

# More lines, now with the values ahead:
Emission wavelength [1] [nm],Fluorescence ratio in glycerol to methanol [1],Quantum yield of free probe [2],Fluorescence activation multiple (SNAP protein tags),Quantum yield of probe bound to protein tag (SNAP protein tags),SMILES
601,210,<0.001,541,0.11,CN(CCOC(=O)NCc1ccc(COc2nc(N)nc3[nH]cnc23)cc1)c1ccc2nc(/C=C(\C#N)C(=O)O)oc2c1 [probe 49]
625,359,<0.001,392,0.25,CN(CCOC(=O)NCc1ccc(COc2nc(N)nc3[nH]cnc23)cc1)c1ccc2nc(/C=C(\C#N)C(=O)OC(C)(C)C)sc2c1 [probe 51]
600,370,<0.001,498,0.39,CN(CCOC(=O)NCc1ccc(COc2nc(N)nc3[nH]cnc23)cc1)c1ccc(C#C/C=C(\C#N)c2nc3ccccc3s2)cc1 [probe 59]
620,276,<0.001,576,0.36,COCCNC(=O)/C(C#N)=C/c1ccc(-c2ccc(N(C)CCOC(=O)NCc3ccc(COc4nc(N)nc5[nH]cnc45)cc3)cc2)s1 [probe 67]
620,381,<0.001,681,0.36,COCCNC(=O)/C(C#N)=C/c1ccc(-c2ccc(N(C)CCOC(=O)NCc3ccc(COc4cc(Cl)nc(N)n4)cc3)cc2)s1 [probe 68]
640,121,0.0028,239,0.67,COCCNC(=O)/C(C#N)=C/c1cc2cc3sc(N(C)CCOC(=O)NCc4ccc(COc5nc(N)nc6[nH]cnc56)cc4)cc3cc2s1 [probe 71]
